Columns and labels:
Assay in all cases: Test G pre/postemergence
Assay type in all cases: in vivo
[1] = test system: pitted morningglory (Ipomoea lacunosa)
Source text: (§1) Seeds or nutlets of plant species selected from bermudagrass (Cynodon dactylon), Surinam grass (Brachiaria decumbens), large crabgrass (Digitaria sanguinalis), green foxtail (Setaria viridis), goosegrass (Eleusine indica), johnsongrass (Sorghum halepense), kochia (Kochia scoparia), pitted morningglory (Ipomoea lacunosa), purple nutsedge (Cyperus rotundus), common ragweed (Ambrosia elatior), black mustard (Brassica nigra), guineagrass (Panicum maximum), dallisgrass (Paspalum dilatatum), barnyardgrass (Echinochloa crus-galli), southern sandbur (Cenchrus echinatus), common sowthistle (Sonchus oleraceous), prickly sida (Sida spinosa), Italian ryegrass (Lolium multiflorum), common purslane (Portulaca oleracea), broadleaf signalgrass (Brachiaria platyphylla), common groundsel (Senecio vulgaris), common chickweed (Stellaria media), tropical spiderwort (Commelina benghalensis), annual bluegrass (Poa annua), downy bromegrass (Bromus tectorum), itchgrass (Rottboellia cochinchinensis), quackgrass (Elytrigia repens), Canada horseweed (Conyza canadensis), field bindweed (Convolvulus arvensis), spanishneedles (Bidens bipinnata), common mallow (Malva sylvestris), and Russian thistle (Salsola kali) were planted and treated preemergence with test chemicals formulated in a non-phytotoxic solvent mixture which included a surfactant.
(§2) At the same time, plants selected from these weed species were treated with postemergence applications of some of the test chemicals formulated in the same manner. Plants ranged in height from 2 to 18 cm (1- to 4-leaf stage) for postemergence treatments. Treated plants and controls were maintained in a greenhouse for 12 to 21 days, after which time all species were compared to controls and visually evaluated.
(§3) Plant response ratings, summarized in Table G, are based on a scale of 0 to 100 where 0 is no effect and 100 is complete control. A dash (-) response means no test result.

[2] = test system: annual bluegrass (Poa annua)
Source text: as §1, §2, §3

[3] = test system: barnyardgrass (Echinochloa crus-galli)
Source text: as §1, §2, §3

[4] = test system: tropical spiderwort (Commelina benghalensis)
Source text: as §1, §2, §3

[5] = test system: itchgrass (Rottboellia cochinchinensis)
Source text: as §1, §2, §3

[6] = test system: broadleaf signalgrass (Brachiaria platyphylla)
Source text: as §1, §2, §3

[7] = test system: southern sandbur (Cenchrus echinatus)
Source text: as §1, §2, §3

[8] = test system: Italian ryegrass (Lolium multiflorum)
Source text: as §1, §2, §3

[9] = test system: prickly sida (Sida spinosa)
Source text: as §1, §2, §3

[10] = test system: johnsongrass (Sorghum halepense); settings: Preemergence, scale 0-100
Source text: as §1, §2, §3

[11] = test system: green foxtail (Setaria viridis)
Source text: as §1, §2, §3

[12] = test system: black mustard (Brassica nigra)
Source text: as §1, §2, §3

[13] = test system: large crabgrass (Digitaria sanguinalis)
Source text: as §1, §2, §3

[14] = test system: common mallow (Malva sylvestris)
Source text: as §1, §2, §3

[15] = Postemergence, 250 g ai/ha, scale 0 to 100
[16] = Postemergence, 16 g ai/ha, scale 0 to 100
[17] = Postemergence, 31 g ai/ha, scale 0 to 100
[18] = Postemergence, 62 g ai/ha, scale 0 to 100
[19] = Postemergence, 125 g ai/ha, scale 0 to 100
[20] = Preemergence, 16 g ai/ha, scale 0-100
[21] = Preemergence, 31 g ai/ha, scale 0-100
[22] = Preemergence, 62 g ai/ha, scale 0-100
[23] = Preemergence, 125 g ai/ha, scale 0-100
[24] = Preemergence, 250 g ai/ha, scale 0-100

## Nc1nc(C2CC2)nc(C(=O)OCc2ccccc2)c1Br [Compound 22, phenylmethyl 6-amino-5-bromo-2-cyclopropyl-4-pyrimidinecarboxylate]
[1]; [15]
  Plant response rating, Morningglory: 100
[1]; [16]
  Plant response rating, Morningglory: 50
[1]; [17]
  Plant response rating, Morningglory: 85
[1]; [18]
  Plant response rating, Morningglory: 85
[1]; [19]
  Plant response rating, Morningglory: 95
[1]; [20]
  Plant response rating, Morningglory: 20
[1]; [21]
  Plant response rating, Morningglory: 50
[1]; [22]
  Plant response rating, Morningglory: 60
[1]; [23]
  Plant response rating, Morningglory: 90
[1]; [24]
  Plant response rating, Morningglory: 90
[2]; [15]
  Plant response rating, Bluegrass: 75
[2]; [16]
  Plant response rating, Bluegrass: 0
[2]; [17]
  Plant response rating, Bluegrass: 0
[2]; [18]
  Plant response rating, Bluegrass: 15
[2]; [19]
  Plant response rating, Bluegrass: 40
[2]; [20]
  Plant response rating, Bluegrass: 0
[2]; [21]
  Plant response rating, Bluegrass: 0
[2]; [22]
  Plant response rating, Bluegrass: 0
[2]; [23]
  Plant response rating, Bluegrass: 30
[2]; [24]
  Plant response rating, Bluegrass: 60
[3]; [15]
  Plant response rating, Barnyardgrass: 85
[3]; [16]
  Plant response rating, Barnyardgrass: 0
[3]; [17]
  Plant response rating, Barnyardgrass: 0
[3]; [18]
  Plant response rating, Barnyardgrass: 15
[3]; [19]
  Plant response rating, Barnyardgrass: 25
[3]; [20]
  Plant response rating, Barnyardgrass: 10
[3]; [21]
  Plant response rating, Barnyardgrass: 20
[3]; [22]
  Plant response rating, Barnyardgrass: 30
[3]; [23]
  Plant response rating, Barnyardgrass: 70
[3]; [24]
  Plant response rating, Barnyardgrass: 80
[4]; [15]
  Plant response rating, Spiderwort: 98
[4]; [16]
  Plant response rating, Spiderwort: 15
[4]; [17]
  Plant response rating, Spiderwort: 40
[4]; [18]
  Plant response rating, Spiderwort: 85
[4]; [19]
  Plant response rating, Spiderwort: 95
[4]; [20]
  Plant response rating, Spiderwort: 0
[4]; [21]
  Plant response rating, Spiderwort: 50
[4]; [22]
  Plant response rating, Spiderwort: 95
[4]; [23]
  Plant response rating, Spiderwort: 100
[4]; [24]
  Plant response rating, Spiderwort: 100
[5]; [15]
  Plant response rating, Itchgrass: 85
[5]; [16]
  Plant response rating, Itchgrass: 15
[5]; [17]
  Plant response rating, Itchgrass: 25
[5]; [18]
  Plant response rating, Itchgrass: 50
[5]; [19]
  Plant response rating, Itchgrass: 75
[5]; [20]
  Plant response rating, Itchgrass: 0
[5]; [21]
  Plant response rating, Itchgrass: 0
[5]; [22]
  Plant response rating, Itchgrass: 20
[5]; [23]
  Plant response rating, Itchgrass: 40
[5]; [24]
  Plant response rating, Itchgrass: 65
[6]; [15]
  Plant response rating, Signalgrass: 85
[6]; [16]
  Plant response rating, Signalgrass: 5
[6]; [17]
  Plant response rating, Signalgrass: 15
[6]; [18]
  Plant response rating, Signalgrass: 25
[6]; [19]
  Plant response rating, Signalgrass: 50
[6]; [20]
  Plant response rating, Signalgrass: 0
[6]; [21]
  Plant response rating, Signalgrass: 0
[6]; [22]
  Plant response rating, Signalgrass: 0
[6]; [23]
  Plant response rating, Signalgrass: 10
[6]; [24]
  Plant response rating, Signalgrass: 80
[7]; [15]
  Plant response rating, Sandbur: 95
[7]; [16]
  Plant response rating, Sandbur: 0
[7]; [17]
  Plant response rating, Sandbur: 15
[7]; [18]
  Plant response rating, Sandbur: 40
[7]; [19]
  Plant response rating, Sandbur: 85
[7]; [20]
  Plant response rating, Sandbur: 0
[7]; [21]
  Plant response rating, Sandbur: 0
[7]; [22]
  Plant response rating, Sandbur: 0
[7]; [23]
  Plant response rating, Sandbur: 70
[7]; [24]
  Plant response rating, Sandbur: 85
[8]; [15]
  Plant response rating, Ryegrass, Italian: 85
[8]; [16]
  Plant response rating, Ryegrass, Italian: 0
[8]; [17]
  Plant response rating, Ryegrass, Italian: 5
[8]; [18]
  Plant response rating, Ryegrass, Italian: 15
[8]; [19]
  Plant response rating, Ryegrass, Italian: 40
[8]; [20]
  Plant response rating, Ryegrass, Italian: 0
[8]; [21]
  Plant response rating, Ryegrass, Italian: 0
[8]; [22]
  Plant response rating, Ryegrass, Italian: 0
[8]; [23]
  Plant response rating, Ryegrass, Italian: 0
[8]; [24]
  Plant response rating, Ryegrass, Italian: 50
[9]; [15]
  Plant response rating, Prickly Sida: 95
[9]; [16]
  Plant response rating, Prickly Sida: 75
[9]; [17]
  Plant response rating, Prickly Sida: 85
[9]; [18]
  Plant response rating, Prickly Sida: 90
[9]; [19]
  Plant response rating, Prickly Sida: 95
[9]; [20]
  Plant response rating, Prickly Sida: 50
[9]; [21]
  Plant response rating, Prickly Sida: 50
[9]; [22]
  Plant response rating, Prickly Sida: 65
[9]; [23]
  Plant response rating, Prickly Sida: 80
[9]; [24]
  Plant response rating, Prickly Sida: 95
[10]; 16 g ai/ha
  Plant response rating, Johnsongrass: 0
[10]; 31 g ai/ha
  Plant response rating, Johnsongrass: 0
[10]; 62 g ai/ha
  Plant response rating, Johnsongrass: 20
[10]; 125 g ai/ha
  Plant response rating, Johnsongrass: 50
[10]; 250 g ai/ha
  Plant response rating, Johnsongrass: 80
[11]; [15]
  Plant response rating, Foxtail, Green: 75
[11]; [16]
  Plant response rating, Foxtail, Green: 0
[11]; [17]
  Plant response rating, Foxtail, Green: 15
[11]; [18]
  Plant response rating, Foxtail, Green: 25
[11]; [19]
  Plant response rating, Foxtail, Green: 50
[11]; [20]
  Plant response rating, Foxtail, Green: 0
[11]; [21]
  Plant response rating, Foxtail, Green: 0
[11]; [22]
  Plant response rating, Foxtail, Green: 0
[11]; [23]
  Plant response rating, Foxtail, Green: 10
[11]; [24]
  Plant response rating, Foxtail, Green: 20
[12]; [15]
  Plant response rating, Black Mustard: 95
[12]; [16]
  Plant response rating, Black Mustard: 50
[12]; [17]
  Plant response rating, Black Mustard: 75
[12]; [18]
  Plant response rating, Black Mustard: 75
[12]; [19]
  Plant response rating, Black Mustard: 95
[12]; [20]
  Plant response rating, Black Mustard: 30
[12]; [21]
  Plant response rating, Black Mustard: 35
[12]; [22]
  Plant response rating, Black Mustard: 60
[12]; [23]
  Plant response rating, Black Mustard: 65
[12]; [24]
  Plant response rating, Black Mustard: 75
[13]; [15]
  Plant response rating, Crabgrass, Large: 85
[13]; [16]
  Plant response rating, Crabgrass, Large: 15
[13]; [17]
  Plant response rating, Crabgrass, Large: 35
[13]; [18]
  Plant response rating, Crabgrass, Large: 50
[13]; [19]
  Plant response rating, Crabgrass, Large: 85
[13]; [20]
  Plant response rating, Crabgrass, Large: 0
[13]; [21]
  Plant response rating, Crabgrass, Large: 40
[13]; [22]
  Plant response rating, Crabgrass, Large: 40
[13]; [23]
  Plant response rating, Crabgrass, Large: 80
[13]; [24]
  Plant response rating, Crabgrass, Large: 80
[14]; [15]
  Plant response rating, Mallow: 95
[14]; [16]
  Plant response rating, Mallow: 40
[14]; [17]
  Plant response rating, Mallow: 60
[14]; [19]
  Plant response rating, Mallow: 85
[14]; [20]
  Plant response rating, Mallow: 50
[14]; [21]
  Plant response rating, Mallow: 50
[14]; [22]
  Plant response rating, Mallow: 75
[14]; [23]
  Plant response rating, Mallow: 80
[14]; [24]
  Plant response rating, Mallow: 80

Source: patent US8802597B2, “Herbicidal pyrimidines” (E I du Pont de Nemours and Company, priority 2003, dated 2014)
